The text below walks through data of US8546377B2 (AbbVie Inc., priority 2009, dated 2013).

In general, EC50 refers to the concentration at which the effect is half-maximal. The term Emax denotes the size of the effect at its maximum, as opposed to the concentration needed.

The target of test [1] is T1, 5HT2C receptors (Homo sapiens, UniProt P28335).
T1 sequence (P28335 33-458): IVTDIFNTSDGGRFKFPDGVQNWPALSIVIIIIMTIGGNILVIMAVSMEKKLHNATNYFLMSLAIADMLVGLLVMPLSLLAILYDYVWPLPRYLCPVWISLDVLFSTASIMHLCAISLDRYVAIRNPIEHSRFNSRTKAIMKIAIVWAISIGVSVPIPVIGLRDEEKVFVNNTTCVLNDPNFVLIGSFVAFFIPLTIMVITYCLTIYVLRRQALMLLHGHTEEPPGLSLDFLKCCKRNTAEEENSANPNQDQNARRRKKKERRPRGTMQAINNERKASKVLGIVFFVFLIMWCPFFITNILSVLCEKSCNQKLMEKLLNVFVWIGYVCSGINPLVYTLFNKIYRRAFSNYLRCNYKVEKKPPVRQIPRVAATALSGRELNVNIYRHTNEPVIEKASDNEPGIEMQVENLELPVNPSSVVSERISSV
Kind of test: Human 5-HT2C functional assay in CHO-K1 cells (calcium flux, FLIPR). Also noted: expressed in transfected cells; host or cells: CHO-K1 cells. The note with it: for Emax: percentage relative to the effect of serotonin. It counts as cell-based. A digest of the protocol:
(§1)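 EC50 came from a 4-parameter logistic fit, with Emax expressed relative to serotonin, of intracellular Ca2+ rises read on FLIPR at 480/530 nm, 25° C, over 3 min. Compounds ran from 10 μM in six 1:10 steps (0.2% DMSO) on serum-starved CHO-K1 transfectants pre-loaded 60 min with Ca4 dye and probenecid.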
A general note: Calcium assays in cells follow changes in intracellular calcium, usually with a dye or a luminescent sensor.

In test [2] the target is T2, 5HT2B receptors (Homo sapiens, UniProt P41595).
T2 construct: expressed in transfected cells; host or cells: CHO-K1 cells
T2 sequence (P41595 whole entry): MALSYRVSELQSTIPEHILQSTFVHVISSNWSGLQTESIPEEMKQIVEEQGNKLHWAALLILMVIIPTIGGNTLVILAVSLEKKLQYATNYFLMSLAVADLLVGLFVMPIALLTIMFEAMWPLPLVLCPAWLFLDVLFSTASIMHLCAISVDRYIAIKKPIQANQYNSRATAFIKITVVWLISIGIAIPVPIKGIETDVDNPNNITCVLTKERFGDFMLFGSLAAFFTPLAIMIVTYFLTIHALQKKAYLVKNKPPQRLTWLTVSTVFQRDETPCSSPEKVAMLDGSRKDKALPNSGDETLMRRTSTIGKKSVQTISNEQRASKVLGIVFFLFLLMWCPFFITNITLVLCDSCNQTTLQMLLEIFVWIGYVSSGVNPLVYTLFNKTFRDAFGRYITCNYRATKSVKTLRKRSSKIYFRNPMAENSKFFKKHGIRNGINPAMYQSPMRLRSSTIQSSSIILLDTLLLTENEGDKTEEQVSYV
Kind of test: Human 5-HT2B functional assay in CHO-K1 cells (calcium flux, FLIPR). It counts as cell-based. A digest of the protocol: as §1

Where [3] appears, read: CHO-K1 cells over-expressing 5HT2C, calcium flux, read-out: EC50 (μM), 5-HT2c Agonist Activity.
Where [4] appears, read: CHO-K1 cells, read-out: Emax (%), 5-HT2c Agonist Activity.
Setting [5] is: CHO-K1 cells over-expressing 5HT2B, calcium flux, read-out: EC50 (μM), 5-HT2B Agonist Activity.
The mark [6] stands for this setting: CHO-K1 cells, percentage relative to the effect of serotonin, read-out: Emax (%), 5-HT2B Agonist Activity.
[7] abbreviates: CHO-K1, read-out: Emax (%), 5-HT2c Agonist Activity, CHO-K1 cells.
Where [8] appears, read: CHO-K1, read-out: Emax (%), 5-HT2B Agonist Activity.

Like-named read-outs stand apart in the source and are kept apart here.

For the compound `C[C@H](Cc1ccccc1)Oc1ccc2c(c1)N1CCNC[C@@H]1CC(=O)N2` [Example 165, (4aS)-10-{[(2R)-1-phenylpropan-2-yl]oxy}-1,2,3,4,4a,5-hexahydropyrazino[1,2-a][1,5]benzodiazepin-6(7H)-one], the EC50 in test [1] (setting [3]) was 0.008 µM; in test [2] (setting [5]), greater than 10 µM. Moreover, the maximal response (Emax) in test [1] (setting [4]) is greater than 120%.
Regarding `C[C@@H](Oc1ccc2c(c1)N1CCNCC1CC(=O)N2)c1ccccc1F` (stereo partly drawn) [Example 161, 10-[(1R)-1-(2-fluorophenyl)ethoxy]-1,2,3,4,4a,5-hexahydropyrazino[1,2-a][1,5]benzodiazepin-6(7H)-one], the 50% effective concentration (EC50) in test [1] (setting [3]) came to 0.01 µM; in test [2] (setting [5]), 1 µM. The Emax was 120% in test [1] (setting [4]) and 20% in test [2] (setting [6]).
As to `Cc1ccc2c(c1)NC(=O)CC1CNCCN21` (stereo not drawn) [Example 49, 9-methyl-1,2,3,4,4a,5-hexahydropyrazino[1,2-a][1,5]benzodiazepin-6(7H)-one], the EC50 in test [1] is 0.06 µM; in test [2], greater than 10 µM. Also, the maximal effect (Emax) in test [1] (setting [7]) turned out to be 100%.
`c1ccc2c(c1)CCCC1CNCCN21` (stereo not drawn) [Example 182, 1,2,3,4,4a,5,6,7-octahydropyrazino[1,2-a][1]benzazepine]: the values for the EC50 in test [1] and in test [2] were 0.007 µM and 0.1 µM, respectively. Further, the Emax in test [1] (setting [7]) was greater than 120%; in test [2] (setting [8]), 40%.
As to `CS(=O)(=O)c1ccccc1-c1ccc2c(c1)N1CCNC[C@@H]1CCO2` [Example 195, (4aS)-10-[2-(methylsulfonyl)phenyl]-2,3,4,4a,5,6-hexahydro-1H-pyrazino[2,1-d][1,5]benzoxazepine], the values for the half-maximal effective concentration (EC50) in test [1] (setting [3]) and in test [2] (setting [5]) were 0.007 µM and 0.3 µM, respectively. The maximal effect (Emax) in test [1] (setting [4]) is greater than 120%; in test [2] (setting [6]), 55%.
On the same counts, the results for `O=C1CC2CNCCN2c2cc(COc3ccccc3)ccc2N1` (stereo not drawn) [Example 111, 10-(phenoxymethyl)-1,2,3,4,4a,5-hexahydropyrazino[1,2-a][1,5]benzodiazepin-6(7H)-one] are 0.02 µM, 0.7 µM, greater than 120% and 20%.
For the compound `Cc1cccc2c1N1CCNCC1CC(=O)N2` (stereo not drawn) [Example 53, 11-methyl-1,2,3,4,4a,5-hexahydropyrazino[1,2-a][1,5]benzodiazepin-6(7H)-one], the values for the EC50 in test [1] and in test [2] were 0.006 µM and 3 µM, respectively. Further, the Emax was greater than 120% in test [1] (setting [7]) and 60% in test [2] (setting [8]).
For `CN1CCN2c3cccc(F)c3NC(=O)CC2C1` (stereo not drawn) [Example 79, 8-fluoro-3-methyl-1,2,3,4,4a,5-hexahydropyrazino[1,2-a][1,5]benzodiazepin-6(7H)-one], the EC50 is 0.03 µM in test [1] and greater than 10 µM in test [2]. Besides, in test [1] (setting [7]), the Emax turned out to be 100%.
Turning to `c1cc(-c2ccc3c(c2)N2CCNC[C@@H]2CCO3)co1` [Example 224, (4aS)-10-(3-furyl)-2,3,4,4a,5,6-hexahydro-1H-pyrazino[2,1-d][1,5]benzoxazepine], the EC50 came to 0.1 µM in test [1] (setting [3]) and 0.4 µM in test [2] (setting [5]). For the same compound, the Emax in test [1] (setting [4]) was found to be 85%; in test [2] (setting [6]), 40%.
On to `Cc1cccc(CCOc2ccc3c(c2)N2CCNC[C@@H]2CC(=O)N3)c1` [Example 176, (4aS)-10-[2-(3-methylphenyl)ethoxy]-1,2,3,4,4a,5-hexahydropyrazino[1,2-a][1,5]benzodiazepin-6(7H)-one], for which the EC50 in test [1] (setting [3]) amounted to 0.002 µM; in test [2] (setting [5]) it was 1 µM. In addition, the maximal effect (Emax) came out at 100% in test [1] (setting [4]) and 10% in test [2] (setting [6]).
`O=C1CC2CNCCN2c2cc(-c3cccc(-n4cccn4)c3)ccc2N1` (stereo not drawn) [Example 73, 10-[3-(1H-pyrazol-1-yl)phenyl]-1,2,3,4,4a,5-hexahydropyrazino[1,2-a][1,5]benzodiazepin-6(7H)-one]: the concentration giving a half-maximal response (EC50) is 0.03 µM in test [1] (setting [3]) and greater than 10 µM in test [2] (setting [5]). In addition, the Emax in test [1] (setting [4]) came out at 110%.
On the same counts, the results for `CS(=O)(=O)c1ccc(-c2ccc3c(c2)OCC[C@H]2CNCCN32)cc1` [Example 230, (4aS)-9-[4-(methylsulfonyl)phenyl]-2,3,4,4a,5,6-hexahydro-1H-pyrazino[2,1-d][1,5]benzoxazepine] are 0.07 µM, greater than 10 µM and 90%.
As for `Fc1ccc(-c2ccc3c(c2)N2CCNC[C@@H]2CCO3)cc1` [Example 205, (4aS)-10-(4-fluorophenyl)-2,3,4,4a,5,6-hexahydro-1H-pyrazino[2,1-d][1,5]benzoxazepine], the figures for the EC50 in test [1] (setting [3]) and in test [2] (setting [5]) were 0.05 µM and 5 µM, respectively. For the same compound, the Emax in test [1] (setting [4]) was greater than 120%; in test [2] (setting [6]) it was 10%.
Regarding `Cc1ccccc1-c1ccc2c(c1)N1CCNC[C@@H]1CCO2` [Example 189, (4aS)-10-(2-methylphenyl)-2,3,4,4a,5,6-hexahydro-1H-pyrazino[2,1-d][1,5]benzoxazepine], the values for the EC50 in test [1] (setting [3]) and in test [2] (setting [5]) were 0.03 µM and 1 µM, respectively. The Emax in test [1] (setting [4]) was greater than 120%; in test [2] (setting [6]), 20%.
As for `c1csc(-c2cccc3c2OCC[C@H]2CNCCN32)c1` [Example 249, (4aS)-8-(2-thienyl)-2,3,4,4a,5,6-hexahydro-1H-pyrazino[2,1-d][1,5]benzoxazepine], the figures for the concentration for a half-maximal effect (EC50) in test [1] (setting [3]) and in test [2] (setting [5]) were 0.0001 µM and greater than 10 µM, respectively. Besides, in test [1] (setting [4]), the Emax is 75%.
On the same counts, the results for `c1ccc(CN2CCN3c4ccccc4OCC[C@H]3C2)cc1` [Example 168, (4aS)-3-benzyl-2,3,4,4a,5,6-hexahydro-1H-pyrazino[2,1-d][1,5]-benzoxazepine] are 0.9 µM, greater than 10 µM and 50%.
On the same counts, the results for `CC(C)COc1cccc(-c2ccc3c(c2)N2CCNCC2CC(=O)N3)c1` (stereo not drawn) [Example 96, 10-(3-isobutoxyphenyl)-1,2,3,4,4a,5-hexahydropyrazino[1,2-a][1,5]benzodiazepin-6(7H)-one] are 0.02 µM, greater than 10 µM and greater than 120%.
Regarding `[2H]c1ccc2c(c1)N1CCNC[C@@H]1CCO2` [Example 262, (4aS)-(10-^2H)-2,3,4,4a,5,6-hexahydro-1H-pyrazino[2,1-d][1,5]benzoxazepine], the EC50 was found to be 0.005 µM in test [1] and 0.2 µM in test [2]. Besides, the figures for the Emax in test [1] (setting [7]) and in test [2] (setting [8]) were 90% and 15%, respectively.
On the same counts, the results for `Fc1ccc2c(c1)OCC[C@@H]1CNCCN21` [Example 256, (4aR)-9-fluoro-2,3,4,4a,5,6-hexahydro-1H-pyrazino[2,1-d][1,5]benzoxazepine] are 0.001 µM, 0.06 µM, 90% and 80%.
Regarding `CN1CCN2c3ccccc3OCC[C@H]2C1` [Example 132, (4aS)-3-methyl-2,3,4,4a,5,6-hexahydro-1H-pyrazino[2,1-d][1,5]benzoxazepine], the half-maximal effective concentration (EC50) in test [1] was 0.007 µM; in test [2] it was greater than 10 µM. In addition, in test [1] (setting [7]), the Emax is greater than 120%.
As to `CN1CCC2CNCCN2c2ccc(Cl)cc21` (stereo not drawn) [Example 81, 9-chloro-7-methyl-1,2,3,4,4a,5,6,7-octahydropyrazino[1,2-a][1,5]benzodiazepine], the EC50 in test [1] is 0.05 µM; in test [2], 1 µM. The figures for the Emax in test [1] (setting [7]) and in test [2] (setting [8]) were greater than 120% and 20%, respectively.
As for `C[C@@H](Cc1ccccc1)Oc1ccc2c(c1)N1CCNC[C@@H]1CC(=O)N2` [Example 163, (4aS)-10-{[(2S)-1-phenylpropan-2-yl]oxy}-1,2,3,4,4a,5-hexahydropyrazino[1,2-a][1,5]benzodiazepin-6(7H)-one], the EC50 in test [1] (setting [3]) was 0.07 µM; in test [2] (setting [5]) it was greater than 10 µM. Besides, the Emax in test [1] (setting [4]) was greater than 120%.
Consider `c1ccc(-c2ccc3c(c2)N2CCNC[C@@H]2CCO3)cc1` [Example 187, (4aS)-10-phenyl-2,3,4,4a,5,6-hexahydro-1H-pyrazino[2,1-d][1,5]benzoxazepine], for which the results for the EC50 in test [1] (setting [3]) and in test [2] (setting [5]) were 0.03 µM and 6 µM, respectively. Further, the maximal response (Emax) in test [1] (setting [4]) was greater than 120%; in test [2] (setting [6]) it was 10%.
As for `C[C@@H]1C[C@H]2CNCCN2c2ccccc2O1` (single isomer, unassigned) [Example 252], the EC50 worked out at 0.006 µM in test [1] and 0.06 µM in test [2]. For the same compound, the maximum response (Emax) in test [1] (setting [7]) was 105%; in test [2] (setting [8]), 40%.
As to `CC(C)Cc1ccc2c(c1)N1CCNC[C@@H]1CCO2` [Example 213, (4aS)-10-isobutyl-2,3,4,4a,5,6-hexahydro-1H-pyrazino[2,1-d][1,5]benzoxazepine], the results for the EC50 in test [1] (setting [3]) and in test [2] (setting [5]) were 0.03 µM and 1 µM, respectively. The maximal effect (Emax) in test [1] (setting [4]) was 120%; in test [2] (setting [6]) it was 25%.
